In assay [1] the test system is Vitamin B12 deficiency (Cbl−/− diet) mouse model. Nature of the assay: Vitamin B12 deficiency mouse model: bone marrow immunophenotyping (M1/M2 macrophages). Format: in vivo, C57BL/6 mice. Particulars: 50 mpk IP BID; for Ratio of M1/M2 macrophages in bone marrow: mice on the cbl−/− diet (untreated: M1/M2 ratio of 6); for Ratio of M1/M2 macrophages compared with mice on a control diet: mice on the cbl−/− diet. The procedure:
(§1) A vitamin B12 deficiency mouse model was used following the methods described at Ghosh et al 2016.
(§2) Animal maintenance and feeding. Female weanling C57BL/6 mice (n=65) were obtained at 3 weeks of age from Shanghai Sippe-Bk Lab Animal Co., Ltd. The mice were housed in a SPF environment and maintained at 20° C.±6, under standard lighting conditions (12-h light/dark cycle). Animals were divided into 5 animals per cage during modelling, and 3 animals per cage during compound test. The 3-week old mice were fed ad libitum with either AIN-76A control diet (D10001i) designated as control diet group or the same diet deficient in vitamin B12 (D07012902) with pectin as the source of fiber (designated as Cbl−/− cobalamin deficient) referred to as B12R+ by Ghosh et al. (Research Diets Inc., New Brunswick, N.J., USA). Cobalamin-restricted diet with pectin (B12R+) contained 50 g pectin/kg diet, because it has been shown earlier that pectin binds the intrinsic factor in the intestine and makes vitamin B12 less bioavailable. The control diet contained 50 g cellulose/kg diet as the fiber source instead of pectin. The mice also had ad libitum access to deionized water. Food intake and body weights were recorded every week.
Compound treatment. After 6 weeks of feeding on either control or Cbl−/− diet, 9-week-old mice on Cbl−/− diet were randomly assigned into 5 groups with 3 mice per group per treatment. Mice in each group were IP treated with vehicle (1% HPBCD, Sigma, H107) or were dosed at 50 mpk with Compound 1 or Compound 410 BID. One group of mice were sacrificed at 24h after the first dose. 2nd group of mice were sacrificed at 72h after the first dose. 3rd group of mice were sacrificed after 168h (i.e 7 days) after the first dose. 4th group of mice were fasted for 12h before sacrificing after 72h of the first dose. 5th group of mice were first fasted for 12h before any vehicle or compound treatment and sacrificed after 72h after the first dose.
Tissue and sample collection. At above specified timepoints, mice were weighed and anesthetized with CO2 before sample collection. For blood collection, the chest was opened to expose the heart. Up to 300 μl blood was drawn from the left ventricle with 1 ml syringe rinsed with EDTA-Na and dispensed into a K3EDTA mini collect tube (Greiner Bio-One) for haematology analysis. Then a new syringe was used to draw remaining blood from heart as much as possible. Serum was isolated by centrifugation at 5000 rpm for 10 min, aliquoted and kept at −80° C. until further use. For tissue collection after blood was drawn, mice were perfused with ice cold saline from the left ventricle. Heart, liver, kidney, spleen, brain was weighed after isolation. Then left leg was kept in ice cold PBS and bone marrow was isolated for further immunophenotype analysis. […]

Assay [2] shares this test system. Nature of the assay: Vitamin B12 deficiency mouse model: liver protein determination (ELISA, TNFα, protein carbonyls). Format: in vivo, C57BL/6 mice. The procedure: as §1, §2
Compound treatment. After 6 weeks of feeding on either control or Cbl−/− diet, 9-week-old mice on Cbl−/− diet were randomly assigned into 5 groups with 3 mice per group per treatment. […]
(ELISA stands for enzyme-linked immunosorbent assay.)

The test system is the same in assay [3]. Description: Vitamin B12 deficiency mouse model: muscle strength by grip test. Format: in vivo, mice. Particulars: after 17 days of 50 mpk QD, IP. The protocol:
Mice at 18 weeks of age were either fed on control diet (n=12 mice) or cbl−/− diet (n=30 mice) for 15 weeks. Grip strength test was measured by using a Grip Strength test meter for mice and rats (Jiangsu, SANS Biological Technology, CO. LTD, SA417) and recorded as day zero grip strength analysis. Briefly, machine was turned on (push peak) and calibrated to zero. Front leg strength was measured by pulling the mice away from the bar by holding the tail of the mice. Total 5 values were measured for each mouse. After the measurement the cbl−/− mice were divided into three groups of N=10 mice per group. Each group received either vehicle (0.1% saline) or Compound 410 or Compound 500, IP at the dose of 50 mpk QD. […]

Regarding `CC(C)(CO)[C@@H](O)C(=O)NCCC(=O)NCCSC(=O)CCC(=O)O` [Compound 1, (R)-4-((2-(3-(2,4-dihydroxy-3,3-dimethylbutanamido)propanamido)ethyl)thio)-4-oxobutanoic acid], in assay [1], the “Ratio of M1/M2 macrophages in bone marrow” value is listed as 3.967 and the “Ratio of M1/M2 macrophages compared with mice on a control diet” value is “statistically indistinguishable”.
As to `COC(=O)CC(C(C)=O)C(=O)SCCNC(=O)CCNC(=O)[C@H](O)C(C)(C)CO` (some centres unmarked) [Compound 410], the “Protein Carbonyl in liver homogenates” value in assay [2] (mice on the cbl−/− diet (untreated 25.4 pg/ug; control diet 16.6 pg/ug)) was 11.1 pg/µg. Besides, the “TNF-α in liver homogenates” value in assay [2] (mice on the cbl−/− diet (untreated 171.8 pg/ug; control diet 121.46 pg/ug)) was 62 pg/µg. The compound further had a Grip strength in assay [3] (mice on the cbl−/− diet (36.5 g; control diet 59 g)) of 57.7 g. For the same compound, the “Recovery of grip strength” value in assay [3] (mice on the cbl−/− diet) was “recovered grip strength to near the level of mice on the control diet”. For the same compound, in assay [1], the “Ratio of M1/M2 macrophages in bone marrow” value was 3.87 and the “Ratio of M1/M2 macrophages compared with mice on a control diet” value is listed as “statistically indistinguishable”.

The values are drawn from patent US20230107216A1, “PANTETHEINE DERIVATIVES AND USES THEREOF” (Comet Therapeutics, Inc., priority 2018, published 2023).
